Reference: PubChem BioAssay (NCI)
Several values for one entry are separate records, joined by “and”; a condition that tells them apart may be missing. Equal values may be shown once.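 These data come from cells grown in 96-well plates and exposed to compound for 48 hours at five concentrations. GI50 = concentration required for 50% inhibition of growth. TGI marks complete inhibition of growth.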 Where a SMILES comes first, the peptide text is derived from it. [ ]: non-standard residue; d: D form. The star is where a group is joined. ξ: configuration not given here. NMeF = CN[CH](Cc1ccccc1)C(=O)O; ξNMeF = CNC(Cc1ccccc1)C(=O)O; NMeV = CN[CH](C(=O)O)C(C)C; Boc = CC(C)(C)OC(=O)*; OBn = c1ccc(CO*)cc1

Columns and labels:
Assay in all cases: growth of human tumour cells (NCI), 48 h
DLD-1 colon = system: DLD-1 colon
HOP-18 NSCLC = system: HOP-18 NSCLC
SNB-78 CNS = system: SNB-78 CNS
DMS 273 small cell lung = system: DMS 273 small cell lung
KM20L2 colon = system: KM20L2 colon
DMS 114 small cell lung = system: DMS 114 small cell lung
LXFL 529 NSCLC = system: LXFL 529 NSCLC
RXF-631 renal = system: RXF-631 renal
M19-MEL melanoma = system: M19-MEL melanoma

Row | SMILES | TGI (DLD-1 colon) [µM] | TGI (HOP-18 NSCLC) [µM] | TGI (SNB-78 CNS) [µM] | TGI (DMS 273 small cell lung) [µM] | TGI (KM20L2 colon) [µM] | TGI (DMS 114 small cell lung) [µM] | TGI (LXFL 529 NSCLC) [µM] | TGI (RXF-631 renal) [µM] | TGI (M19-MEL melanoma) [µM] | GI50 (KM20L2 colon) | GI50 (LXFL 529 NSCLC) | GI50 (M19-MEL melanoma)
1 | Cc1ccc(Nc2cccc3c2C(=O)c2cccc(Nc4ccc(C)cc4S(=O)(=O)O)c2C3=O)c(S(=O)(=O)O)c1 | > 100 | > 100 | > 100 | > 100 | > 100 | > 100 | > 100 | > 100 | > 100 |  |  | 
2 | O=C1c2ccccc2C(=O)N1CCCOCc1c[nH]c(=O)[nH]c1=O | > 100 | > 100 |  | > 100 | > 100 | > 100 | > 100 | > 100 | > 100 |  |  | 
3 | Nc1nc(SCC(=O)c2ccccc2)c2[nH]cnc2n1 | > 100 | > 100 |  | > 100 | > 100 | > 100 |  |  | > 100 |  |  | 
4 | CN(c1ccccc1)c1cc2ccccc2nn1 | > 100 | > 100 | > 100 | > 100 | > 100 | > 100 | > 100 | > 100 | > 100 |  |  | 
5 | COc1cccc(NC(=O)CSc2nnc(Cc3ccccc3)o2)c1 | > 100 | > 100 | > 100 | > 100 | > 100 | > 100 | > 100 |  | > 100 |  |  | 
6 | CCN(CC)C(=O)CCn1cc(F)c(=O)[nH]c1=O |  |  | > 100 | > 100 | > 100 | > 100 | > 100 |  | > 100 |  |  | 
7 | CC(C)[C@@H](C(=O)N(C)[C@H](C(=O)N1CCC[C@H]1C(=O)OCc1ccccc1)C(C)C)N(C)C(=O)C(Cc1ccccc1)N(C)C(=O)[C@H](NC(=O)OC(C)(C)C)C(C)C (stereo partly drawn) (Boc-[dV][ξNMeF][NMeV][NMeV]P-OBn) | > 31.6 | > 100 | > 31.6 | > 31.6 | > 31.6 | > 31.6 | > 100 |  | > 31.6 |  |  | 
8 | CC(C)C(NC(=O)OC(C)(C)C)C(=O)N(C)C(Cc1ccccc1)C(=O)N(C)C(C(=O)OCc1ccccc1)C(C)C (stereo not drawn) (Boc-Val-[NMeF]-[NMeV]-OBn; configuration not given here) |  |  |  | > 100 | > 100 | > 100 | > 100 |  | > 100 | > 100 µM and 49.3 µM | 14.1 µM and 33.2 µM | 87.4 µM and 42.2 µM
9 | C=CCCCCCCCCCP(=O)(c1ccccc1)c1ccc2c(c1)OCCOCCOCCOCCO2 (stereo not drawn) | 27.3 | 31.8 | 34.5 | 29.1 | 27.1 |  |  |  | 33 |  |  | 
